Reference: ChEMBL document CHEMBL4414679, “Discovery of 4,6-pyrimidinediamine derivatives as novel dual EGFR/FGFR inhibitors aimed EGFR/FGFR1-positive NSCLC” (Eur J Med Chem, 2020)
Active and inactive are the calls of the source. No cut-off for these calls is given here.

Legend:
[1] = molecular target: Vascular endothelial growth factor receptor 3 (Homo sapiens) (UniProt P35916); experiment: Inhibition of N-terminal GST tagged human FLT4 cytoplasmic domain (798 to 1298 AA) expressed in baculovirus at 10 uM using FAM-labelled peptide as substrate pre-incubated for 10 mins followed by substrate addition by mobility shift assay relative to control
[2] = molecular target: Mitogen-activated protein kinase 9 (Homo sapiens) (UniProt P45984); experiment: Inhibition of human recombinant full length His-tagged JNK2 expressed in baculovirus expression system at 10 uM using FAM-labelled peptide as substrate pre-incubated for 10 mins followed by substrate addition by mobility shift assay relative to control
Chain of Mitogen-activated protein kinase 9 (Homo sapiens) (P45984 whole entry, looked up): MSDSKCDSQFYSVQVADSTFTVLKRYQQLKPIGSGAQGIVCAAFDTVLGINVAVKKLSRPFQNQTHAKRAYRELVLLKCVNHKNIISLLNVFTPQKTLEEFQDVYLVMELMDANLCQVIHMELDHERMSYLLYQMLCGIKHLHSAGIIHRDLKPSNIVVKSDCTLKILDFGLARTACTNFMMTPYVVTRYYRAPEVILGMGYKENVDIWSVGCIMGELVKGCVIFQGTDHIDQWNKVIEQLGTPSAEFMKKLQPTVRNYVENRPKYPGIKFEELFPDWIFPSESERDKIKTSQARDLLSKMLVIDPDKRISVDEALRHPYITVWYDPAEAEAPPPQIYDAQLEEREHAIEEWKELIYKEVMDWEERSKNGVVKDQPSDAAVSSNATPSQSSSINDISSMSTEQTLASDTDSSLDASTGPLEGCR

[3] = molecular target: T1, Fibroblast growth factor receptor 1 (Homo sapiens, UniProt P11362); experiment: Inhibition of FGFR1 in gefitinib-insensitive human HCC827GR cells assessed as reduction in FGF-induced FGFR1 phosphorylation upto 10 uM measured after 2 hrs by western blot analysis
Target sequence in this assay (P11362 22-822 limits assumed): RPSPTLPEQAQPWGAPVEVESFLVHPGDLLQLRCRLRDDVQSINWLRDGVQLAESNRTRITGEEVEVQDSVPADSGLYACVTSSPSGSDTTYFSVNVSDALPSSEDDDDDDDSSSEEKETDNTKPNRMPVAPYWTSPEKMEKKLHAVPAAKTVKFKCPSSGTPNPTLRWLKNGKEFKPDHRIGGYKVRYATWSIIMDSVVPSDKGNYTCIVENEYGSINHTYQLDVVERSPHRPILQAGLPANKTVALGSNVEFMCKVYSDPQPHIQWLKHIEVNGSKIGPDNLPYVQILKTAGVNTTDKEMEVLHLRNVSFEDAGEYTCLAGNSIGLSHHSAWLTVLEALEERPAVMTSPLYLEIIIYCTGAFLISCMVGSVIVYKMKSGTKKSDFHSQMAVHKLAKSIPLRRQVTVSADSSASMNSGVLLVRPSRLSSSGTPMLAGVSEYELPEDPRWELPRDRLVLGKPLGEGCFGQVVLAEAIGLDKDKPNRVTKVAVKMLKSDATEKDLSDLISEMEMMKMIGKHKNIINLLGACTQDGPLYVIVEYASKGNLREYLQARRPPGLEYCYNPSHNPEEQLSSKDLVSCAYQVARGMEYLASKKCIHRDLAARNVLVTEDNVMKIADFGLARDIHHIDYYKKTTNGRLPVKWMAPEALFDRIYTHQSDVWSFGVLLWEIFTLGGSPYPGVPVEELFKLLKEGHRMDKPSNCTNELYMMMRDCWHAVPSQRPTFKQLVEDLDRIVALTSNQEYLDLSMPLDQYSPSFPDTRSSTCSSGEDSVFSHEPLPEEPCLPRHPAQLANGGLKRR

[4] = Tmax in Sprague-Dawley rat at 30 mg/kg, po measured upto 24 hrs by UPLC-MS/MS; format: ADME, organism-based; conditions: in vivo
NCI-H226 [5] = experiment: Inhibition of colony formation in human NCI-H226 cells measured after 24 hrs by crystal violet staining based assay; format: functional, cell-based
HCC827 [6] = experiment: Antiproliferative activity against human HCC827 cells assessed as inhibition of cell growth at 10 uM incubated for 48 hrs by MTT assay relative to control; format: functional; conditions: HCC827, 48 h
[7] = Induction of apoptosis in gefitinib-insensitive human HCC827GR cells assessed as viable cells at 2.5 uM measured after 24 hrs by Annexin-V/propidium iodide staining-based flow cytometric analysis (reference value: 90.8%); format: functional; conditions: read-out: Activity
[8] = molecular target: T2, Epidermal growth factor receptor (Homo sapiens, UniProt P00533); experiment: Inhibition of EGF-induced EGFR phosphorylation in serum-starved human PC9 cells upto 10 uM incubated for 1 hr by Western blot analysis
T2 sequence (P00533 whole entry): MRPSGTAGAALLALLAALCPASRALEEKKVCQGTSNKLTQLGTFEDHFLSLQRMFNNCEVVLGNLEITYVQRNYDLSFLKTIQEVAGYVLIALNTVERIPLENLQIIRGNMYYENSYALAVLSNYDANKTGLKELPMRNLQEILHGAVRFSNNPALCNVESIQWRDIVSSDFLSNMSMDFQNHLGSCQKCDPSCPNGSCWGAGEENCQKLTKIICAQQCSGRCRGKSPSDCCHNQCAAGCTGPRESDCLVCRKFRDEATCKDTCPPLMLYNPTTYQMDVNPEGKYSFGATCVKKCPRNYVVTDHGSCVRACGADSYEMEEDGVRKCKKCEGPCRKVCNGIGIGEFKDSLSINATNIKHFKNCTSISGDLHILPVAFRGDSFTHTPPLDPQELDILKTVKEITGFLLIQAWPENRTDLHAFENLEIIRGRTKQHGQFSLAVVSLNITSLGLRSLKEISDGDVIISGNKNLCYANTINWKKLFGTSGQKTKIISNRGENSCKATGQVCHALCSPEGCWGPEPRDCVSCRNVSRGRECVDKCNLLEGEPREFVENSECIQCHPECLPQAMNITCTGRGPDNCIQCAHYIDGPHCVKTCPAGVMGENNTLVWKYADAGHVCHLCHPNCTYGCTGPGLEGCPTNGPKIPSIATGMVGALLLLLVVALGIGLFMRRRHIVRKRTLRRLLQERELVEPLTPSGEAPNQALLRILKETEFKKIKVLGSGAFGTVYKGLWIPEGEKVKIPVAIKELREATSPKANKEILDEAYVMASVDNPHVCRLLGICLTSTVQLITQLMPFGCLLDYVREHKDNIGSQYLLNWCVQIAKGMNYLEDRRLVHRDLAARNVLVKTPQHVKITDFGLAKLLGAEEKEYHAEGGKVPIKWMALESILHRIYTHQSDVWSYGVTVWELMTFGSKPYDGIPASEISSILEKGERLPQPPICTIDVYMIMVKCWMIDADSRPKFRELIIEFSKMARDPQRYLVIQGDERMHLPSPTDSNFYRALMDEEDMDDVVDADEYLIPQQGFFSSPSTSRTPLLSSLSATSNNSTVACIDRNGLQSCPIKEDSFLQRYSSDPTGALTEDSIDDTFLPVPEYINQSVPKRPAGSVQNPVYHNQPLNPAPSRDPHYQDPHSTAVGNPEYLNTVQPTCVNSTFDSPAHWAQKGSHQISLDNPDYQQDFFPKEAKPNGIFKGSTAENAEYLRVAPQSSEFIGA

NCI-H226 [9] = experiment: Induction of apoptosis in human NCI-H226 cells assessed as late apoptotic cells at 5 uM measured after 24 hrs by Annexin-V/propidium iodide staining-based flow cytometric analysis (reference value: 2.8%); format: functional
[10] = molecular target: Platelet-derived growth factor receptor alpha (Homo sapiens) (UniProt P16234); experiment: Inhibition of N-terminal GST tagged human PDGFRalpha cytoplasmic domain (550 to 1089 AA) expressed in baculovirus at 10 uM using FAM-labelled peptide as substrate pre-incubated for 10 mins followed by substrate addition by mobility shift assay relative to control
[11] = molecular target: T1, Fibroblast growth factor receptor 1; experiment: Inhibition of FGFR1 in gefitinib-insensitive human HCC827GR cells assessed as reduction in FGF-induced Akt phosphorylation upto 10 uM measured after 2 hrs by western blot analysis
Target sequence in this assay (P11362 22-822 limits assumed): as the sequence (P11362 22-822 limits assumed) above

NCI-H226 [12] = experiment: Induction of apoptosis in human NCI-H226 cells assessed as early apoptotic cells at 1 uM measured after 24 hrs by Annexin-V/propidium iodide staining-based flow cytometric analysis (reference value: 0.8%); format: functional
[13] = Induction of apoptosis in gefitinib-insensitive human HCC827GR cells assessed as early apoptotic cells at 2.5 uM measured after 24 hrs by Annexin-V/propidium iodide staining-based flow cytometric analysis (reference value: 1.9%); format: functional
NCI-H520 = experiment: Antiproliferative activity against human NCI-H520 cells assessed as inhibition of cell growth at 10 uM incubated for 48 hrs by MTT assay relative to control; format: functional; conditions: NCI-H520, 48 h
[14] = Induction of apoptosis in gefitinib-insensitive human HCC827GR cells assessed as necrotic cells at 1 uM measured after 24 hrs by Annexin-V/propidium iodide staining-based flow cytometric analysis (reference value: 5.8%); format: functional
HCC827 [15] = experiment: Antiproliferative activity against human HCC827 cells incubated for 48 hrs by MTT assay; format: functional, cell-based; conditions: HCC827, 48 h
Homo sapiens [16] = experiment: Antitumor activity against human HCC827GR cells xenografted in BALB/c nude mouse assessed as reduction in tumor volume at 15 mg/kg, ip dosed measured every 2 days upto 25 days; format: functional, organism-based
[17] = Toxicity in BALB/c nude mouse xenografted with human HCC827GR cells assessed as body weight at 15 mg/kg, ip dosed measured every 2 days upto 24 days; format: organism-based; conditions: in vivo
[18] = molecular target: Fibroblast growth factor receptor 4 (Homo sapiens) (UniProt P22455); experiment: Inhibition of N-terminal GST tagged human FGFR4 cytoplasmic domain (460 to 802 AA) expressed in baculovirus at 10 uM using FAM-labelled peptide as substrate pre-incubated for 10 mins followed by substrate addition by mobility shift assay relative to control
Chain of Fibroblast growth factor receptor 4 (Homo sapiens) (P22455 22-802 limits assumed): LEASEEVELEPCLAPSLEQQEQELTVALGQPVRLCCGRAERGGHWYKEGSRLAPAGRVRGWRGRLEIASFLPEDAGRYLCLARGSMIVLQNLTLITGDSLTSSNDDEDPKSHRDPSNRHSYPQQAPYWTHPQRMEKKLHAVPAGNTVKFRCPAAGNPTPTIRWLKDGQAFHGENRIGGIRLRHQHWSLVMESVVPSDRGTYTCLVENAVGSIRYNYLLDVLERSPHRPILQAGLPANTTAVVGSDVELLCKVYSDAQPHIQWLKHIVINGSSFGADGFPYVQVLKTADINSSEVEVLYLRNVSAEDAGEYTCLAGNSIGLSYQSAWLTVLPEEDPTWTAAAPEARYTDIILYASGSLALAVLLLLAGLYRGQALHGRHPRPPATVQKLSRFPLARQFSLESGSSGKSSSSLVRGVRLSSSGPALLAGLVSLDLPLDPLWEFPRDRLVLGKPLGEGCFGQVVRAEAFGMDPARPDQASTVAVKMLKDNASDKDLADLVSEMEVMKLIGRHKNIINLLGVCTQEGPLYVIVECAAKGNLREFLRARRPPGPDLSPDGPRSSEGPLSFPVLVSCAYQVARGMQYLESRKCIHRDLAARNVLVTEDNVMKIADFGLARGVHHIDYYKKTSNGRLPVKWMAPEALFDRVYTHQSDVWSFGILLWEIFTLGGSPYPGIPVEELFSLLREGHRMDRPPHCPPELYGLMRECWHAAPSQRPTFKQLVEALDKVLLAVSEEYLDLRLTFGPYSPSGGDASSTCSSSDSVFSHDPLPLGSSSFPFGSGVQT

[19] = molecular target: T1, Fibroblast growth factor receptor 1; experiment: Inhibition of N-terminal GST-tagged human FGFR1 cytoplasmic domain (398-822 AA) expressed in baculovirus at 10 uM using FAM-labelled peptide as substrate pre-incubated for 10 mins followed by substrate addition by mobility shift assay relative to control
Target sequence in this assay (P11362 22-822 limits assumed): as the sequence (P11362 22-822 limits assumed) above

NCI-H226 [20] = experiment: Induction of apoptosis in human NCI-H226 cells assessed as late apoptotic cells at 10 uM measured after 24 hrs by Annexin-V/propidium iodide staining-based flow cytometric analysis (reference value: 2.8%); format: functional
Homo sapiens [21] = species on record: Homo sapiens; experiment: Inhibition of colony formation in gefitinib-insensitive human HCC827GR cells measured after 24 hrs by crystal violet staining based assay; format: functional
NCI-H226 [22] = experiment: Induction of apoptosis in human NCI-H226 cells assessed as early apoptotic cells at 5 uM measured after 24 hrs by Annexin-V/propidium iodide staining-based flow cytometric analysis (reference value: 0.8%); format: functional
[23] = molecular target: T1, Fibroblast growth factor receptor 1; experiment: Inhibition of N-terminal GST-tagged human FGFR1 cytoplasmic domain (398-822 AA) expressed in baculovirus using FAM-labelled peptide as substrate pre-incubated for 10 mins followed by substrate addition by mobility shift assay
Target sequence in this assay (P11362 whole entry): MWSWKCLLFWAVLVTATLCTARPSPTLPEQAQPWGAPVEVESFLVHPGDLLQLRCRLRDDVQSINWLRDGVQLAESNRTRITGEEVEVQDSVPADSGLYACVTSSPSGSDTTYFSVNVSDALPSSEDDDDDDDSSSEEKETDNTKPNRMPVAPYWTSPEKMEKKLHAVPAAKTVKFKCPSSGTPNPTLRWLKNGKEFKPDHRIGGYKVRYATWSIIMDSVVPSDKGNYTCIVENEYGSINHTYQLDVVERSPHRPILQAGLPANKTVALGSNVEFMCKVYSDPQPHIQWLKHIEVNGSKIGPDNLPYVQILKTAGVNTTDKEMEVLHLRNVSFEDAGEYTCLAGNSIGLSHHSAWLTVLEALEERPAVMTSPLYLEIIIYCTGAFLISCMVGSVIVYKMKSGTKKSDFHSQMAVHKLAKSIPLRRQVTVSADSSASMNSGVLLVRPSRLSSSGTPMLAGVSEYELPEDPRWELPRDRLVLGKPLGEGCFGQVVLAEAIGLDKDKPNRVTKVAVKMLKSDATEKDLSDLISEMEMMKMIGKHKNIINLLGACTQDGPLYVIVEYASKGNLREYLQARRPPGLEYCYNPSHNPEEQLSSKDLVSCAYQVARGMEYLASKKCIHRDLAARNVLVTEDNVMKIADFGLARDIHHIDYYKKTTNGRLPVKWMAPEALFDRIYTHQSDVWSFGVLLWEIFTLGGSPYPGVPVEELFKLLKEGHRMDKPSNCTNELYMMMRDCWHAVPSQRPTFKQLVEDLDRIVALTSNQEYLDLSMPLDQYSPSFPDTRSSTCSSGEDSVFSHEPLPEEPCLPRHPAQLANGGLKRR

[24] = Induction of apoptosis in gefitinib-insensitive human HCC827GR cells assessed as early apoptotic cells at 10 uM measured after 24 hrs by Annexin-V/propidium iodide staining-based flow cytometric analysis (reference value: 1.9%); format: functional
[25] = molecular target: Tyrosine-protein kinase JAK2 (Homo sapiens) (UniProt O60674); experiment: Inhibition of N-terminal GST tagged human JAK2 catalytic domain (826 to 1132 AA) expressed in baculovirus at 10 uM using FAM-labelled peptide as substrate pre-incubated for 10 mins followed by substrate addition by mobility shift assay relative to control
NCI-H226 [26] = experiment: Antiproliferative activity against human NCI-H226 cells assessed as inhibition of cell growth at 10 uM incubated for 48 hrs by MTT assay relative to control; format: functional; conditions: NCI-H226, 48 h
NCI-H226 [27] = experiment: Induction of apoptosis in human NCI-H226 cells assessed as necrotic cells at 10 uM measured after 24 hrs by Annexin-V/propidium iodide staining-based flow cytometric analysis (reference value: 3%); format: functional
[28] = molecular target: T2, Epidermal growth factor receptor; experiment: Inhibition of EGFR in human PC9 cells assessed as reduction in EGF-induced AKT phosphorylation upto 10 uM incubated for 1 hr by Western blot analysis; format: cell-based
NCI-H226 [29] = experiment: Induction of apoptosis in human NCI-H226 cells assessed as late apoptotic cells at 1 uM measured after 24 hrs by Annexin-V/propidium iodide staining-based flow cytometric analysis (reference value: 2.8%); format: functional
[30] = Induction of apoptosis in gefitinib-insensitive human HCC827GR cells assessed as late apoptotic cells at 5 uM measured after 24 hrs by Annexin-V/propidium iodide staining-based flow cytometric analysis (reference value: 1.5%); format: functional

COc1ccc(OC)c(Nc2cc(NC(=O)Nc3c(Cl)cccc3Cl)ncn2)c1
inhibition [1]: 43.6% | inhibition [2]: 0.85% | inhibition [3]: Active | Tmax [4]: 1.5 h | inhibition (NCI-H226 [5]): Dose-dependent effect | inhibition at 10 µM (HCC827 [6]): 94% | viability at 2.5 µM [7]: 79.5% | inhibition [8]: Active | Activity (NCI-H226 [9]): 8.9% | inhibition [10]: 48.1% | inhibition [11]: Active | Activity (NCI-H226 [12]): 3% | Activity [13]: 2.5% | inhibition at 10 µM (NCI-H520): 74% | Activity [14]: 3.6% | IC50 (HCC827 [15]): 1.25 µM | Activity (Homo sapiens [16]): Active | Activity [17]: Non-Toxic | inhibition [18]: 12.3% | inhibition [19]: 88.5% | Activity (NCI-H226 [20]): 11.9% | inhibition (Homo sapiens [21]): Dose-dependent effect | Activity (NCI-H226 [22]): 6.3% | IC50 [23]: 0.808 µM | Activity [24]: 13% | inhibition [25]: 13.9% | inhibition at 10 µM (NCI-H226 [26]): 81.7% | Activity (NCI-H226 [27]): 11.8% | inhibition [28]: Active | Activity (NCI-H226 [29]): 3.5% | Activity [30]: 25.3%
